Results: patent US20010048926A1, “SYNTHETIC PEPTIDE VACCINES FOR DENTAL CARIES” (priority 1992, published 2001)

What was measured:
[1] = test system: S. sobrinus GTF; experiment: ELISA of serum IgG antibody reacting with intact S. sobrinus GTF; format: in vivo; conditions: 63 day sera, FIG. 3; for IgG antibody reactivity with intact S. sobrinus GTF: n=4-5 per group
Text: (§1) Glucosyltransferases: Glucosyltransferases (GTF) from S. sobrinus strain 6715 were purified from culture supernatants after bacterial growth in glucose-containing defined media, as described in Taubman et al. (J. Oral Pathol. 17:466-470 (1988)). Enzymes were separated from other culture supernatant proteins by affinity chromatography on Sephadex G-100 (Pharmacia Fine Chemicals), using 6M guanidine HCl as the eluting solvent. GTFs were then obtained from the guanidine HCl eluate by FPLC chromatography on Superose 6 (Pharmacia) using 6M guanidine for elution. GTF preparations contained a mixture of GTF-I, GTF-Sd, and GTF-Si.
(§2) Immunogenicity of Peptides: Sprague Dawley CD strain 43 day-old male rats (Charles River Laboratories) were used for injection. Six groups of 4-5 rats were injected subcutaneously in the vicinity of the salivary glands with 50 μg each of GGY, AND, SAND or CAT peptide constructs, 10 μg of GTF, or sham-immunized with buffer alone. The initial injection included complete Freund adjuvant (CFA; Difco); two subsequent injections at 21-day intervals included incomplete Freund adjuvant. Animals were bled prior to injection and 14-21 days after each injection. Serum from coagulated and centrifuged blood was stored frozen at −20° C. until use.
(§3) ELISA: Serum IgG and salivary IgA antibodies were tested by enzyme-linked immunosorbent assay (ELISA). Polystyrene microtiter plates (Flow Laboratories) were coated with […] of each peptide construct or 0.5 μg of S. sobrinus GTF. Antibody activity was then measured by incubation with 1:100 to 1:10^6 dilutions of sera, or 1:4 to 1:32 dilutions of saliva. Plates were then developed for IgG antibody rabbit anti-rat IgG followed in sequence by alkaline phosphatase goat anti-rabbit IgG (Biosource Inc.) and p-nitrophenylphosphate (Sigma). A mouse monoclonal reagent to rat α chain (Zymed, South San Francisco, Calif.) was used with biotinylated goat anti-mouse IgG (TAGO, Inc., Burlingame, Calif.) and avidin-alkaline phosphatase (Cappel) to reveal levels of salivary IgA antibody to peptides. Reactivity was recorded as absorbance (A405 nm) in a micro plate reader (Biotek Instruments). Data are reported as absorbance (A405 nm), reciprocal titer, or as ELISA units (EU) which were calculated relative to the levels of appropriate reference sera or salivas from Sprague Dawley rats thrice immunized with the respective peptide construct. Dilutions of 1:12,800 and 1:6,400 (A405 nm approximately 1.0) were considered 100 EU for serum IgG to the GGY and AND constructs, respectively. Dilutions of 1:32 were considered 100 EU for salivary IgA to both GGY and AND constructs.

[2] = test system: experimental dental caries; conditions: Taubman et al. Infect. Immun. 63:3088-3093 (1995); protocol similar to experiment 1; cited from earlier work
[3] = target: T1, AND peptide construct (Streptococcus mutans serotype c, UniProt P08987); experiment: Cross-reactivity ELISA, plates coated with AND peptide construct; format: binding; conditions: day 63 sera; FIG. 4
T1 construct: GGY and AND were 19-mer peptides; purchased Applied Diagnostics, Foster City, Calif; host or cells: chemical solid phase synthesis
T1 sequence (P08987 whole entry, looked up): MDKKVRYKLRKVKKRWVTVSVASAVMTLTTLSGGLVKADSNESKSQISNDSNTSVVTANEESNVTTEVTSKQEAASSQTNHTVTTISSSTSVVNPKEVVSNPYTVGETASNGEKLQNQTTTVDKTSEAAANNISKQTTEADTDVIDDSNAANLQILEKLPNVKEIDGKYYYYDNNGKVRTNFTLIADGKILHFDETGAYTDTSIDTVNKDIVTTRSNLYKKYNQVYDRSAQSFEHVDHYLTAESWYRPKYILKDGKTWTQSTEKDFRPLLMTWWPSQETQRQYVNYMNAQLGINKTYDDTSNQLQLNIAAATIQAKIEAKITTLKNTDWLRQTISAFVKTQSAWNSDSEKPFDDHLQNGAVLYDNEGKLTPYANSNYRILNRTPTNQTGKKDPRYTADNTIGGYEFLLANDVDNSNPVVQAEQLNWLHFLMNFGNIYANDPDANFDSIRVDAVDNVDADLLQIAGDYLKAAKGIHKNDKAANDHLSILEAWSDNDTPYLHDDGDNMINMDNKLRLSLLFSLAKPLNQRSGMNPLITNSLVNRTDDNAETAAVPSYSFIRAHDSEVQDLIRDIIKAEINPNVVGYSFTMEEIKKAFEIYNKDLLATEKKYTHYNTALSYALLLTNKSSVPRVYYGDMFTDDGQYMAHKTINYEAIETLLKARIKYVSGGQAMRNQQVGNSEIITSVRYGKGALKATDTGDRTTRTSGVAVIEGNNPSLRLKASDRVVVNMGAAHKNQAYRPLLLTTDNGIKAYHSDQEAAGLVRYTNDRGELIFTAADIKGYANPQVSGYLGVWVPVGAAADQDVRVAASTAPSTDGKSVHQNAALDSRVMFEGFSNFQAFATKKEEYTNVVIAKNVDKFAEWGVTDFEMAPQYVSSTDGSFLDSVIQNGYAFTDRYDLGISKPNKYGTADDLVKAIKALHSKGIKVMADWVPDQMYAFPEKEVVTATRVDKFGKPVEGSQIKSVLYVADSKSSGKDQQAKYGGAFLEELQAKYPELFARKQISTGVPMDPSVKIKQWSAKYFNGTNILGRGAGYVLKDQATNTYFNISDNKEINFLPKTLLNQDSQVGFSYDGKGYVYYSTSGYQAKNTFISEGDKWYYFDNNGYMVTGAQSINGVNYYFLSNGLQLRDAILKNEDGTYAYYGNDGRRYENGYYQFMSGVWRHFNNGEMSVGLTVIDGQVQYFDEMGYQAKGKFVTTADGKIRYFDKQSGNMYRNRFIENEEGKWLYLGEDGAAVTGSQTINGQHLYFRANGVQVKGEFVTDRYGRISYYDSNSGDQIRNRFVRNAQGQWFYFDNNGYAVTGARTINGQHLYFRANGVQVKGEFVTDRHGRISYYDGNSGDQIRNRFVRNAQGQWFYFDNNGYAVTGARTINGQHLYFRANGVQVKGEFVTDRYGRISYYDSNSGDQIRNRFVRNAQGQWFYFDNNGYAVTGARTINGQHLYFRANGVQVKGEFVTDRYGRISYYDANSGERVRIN
Protocol: as §2
(§4) ELISA: Serum IgG and salivary IgA antibodies were tested by enzyme-linked immunosorbent assay (ELISA). Polystyrene microtiter plates (Flow Laboratories) were coated with […] of each peptide construct or 0.5 μg of S. sobrinus GTF. Antibody activity was then measured by incubation with 1:100 to 1:10^6 dilutions of sera, or 1:4 to 1:32 dilutions of saliva. […] Reactivity was recorded as absorbance (A405 nm) in a micro plate reader (Biotek Instruments). Data are reported as absorbance (A405 nm), reciprocal titer, or as ELISA units (EU) which were calculated relative to the levels of appropriate reference sera or salivas from Sprague Dawley rats thrice immunized with the respective peptide construct. […]

[4] = test system: S. mutans SJ32; experiment: Protection experiments: caries assessment (modified Keyes method) after S. mutans infection; format: in vivo, Sprague-Dawley rats; conditions: both experiments
Text: Experimental Protocol for Protection Experiments: Animals used in the present experiments were derived from germ-free Sprague-Dawley rats that had been reared in the isolator facility of Charles River Laboratories, Wilmington, Mass. (Area 051). […] These rats served as initial breeding stock for dams used in these experiments and were regularly monitored for absence of mutans streptococci. The progeny of the dams used for the present experiments were weaned at approximately 21 days and were subsequently fed high sucrose Diet 2000.
(§5) Two experiments were performed. Groups (n=11-12) of 23-26 day-old rats were subcutaneously (sc) injected in the salivary gland vicinity with (experiment 1) GGY (50 μg), AND (50 μg) or GTF(10 μg), or phosphate buffered saline (control animals), or (experiment 2) GGY (50 ;μg) or PBS. Each antigen was incorporated with complete Freund adjuvant in both experiments. Eight (experiment 1) or 14 (experiment 2) days later, rats were reinjected with PBS or with the same antigen and dose in incomplete Freund adjuvant. Six (experiment 1) or 12 (experiment 2) days after the second injection, animals were bled from the tail vein, and saliva was collected after injection of pilocarpine (1.0 mg/100 g body weight). Fourteen (experiment 1) or 11 (experiment 2) days after the second injection, all rats were orally infected with approximately 10^8 S. mutans for 3 consecutive days. Both experiments were terminated 63 days after initial infection.
Caries assessment: The extent and depth of carious lesions in all rat molar teeth (caries score) were microscopically evaluated by a modified Keyes method as previously described (Taubman et al., J. Immunol. 118:710-720 (1977)). Caries scores were determined separately on smooth and on sulcal dental surfaces.

[5] = test system: inducing peptide construct; experiment: ELISA of serum IgG antibody to the inducing (homologous) peptide construct in immunized rats; format: in vivo, Sprague Dawley rats; conditions: for immunogenicity (percentage of animals responding and titer of responding sera): FIG. 1
Protocol: as §2, §3, §5
(§6) Two experiments were performed to measure the effect of immunization with the eight-branched GGY and AND peptide constructs on experimental dental caries in the Sprague-Dawley rat. In the first experiment, groups of rats were immunized with GGY or AND peptide constructs. In the second experiment groups of rats were immunized only with the GGY peptide construct. Pre-infection sera and salivas were collected for antibody measurement in 39 day old rats in experiment 1 (6 days after the second injection) and 51 day old rats in experiment 2 (12 days after the second injection). In the GGY-immunized rat groups, IgG antibody levels to GGY (experiment 1=21.9+17.8 EU; experiment 2=108.0±4.0 EU) were elevated above those of the sham-immunized groups (experiment 1=1.7±0.2 EU; experiment 2=4.0±3.0 EU) in both experiments and reached statistical significance (p<0.002) in experiment 2.

[6] = target: T2, CAT peptide construct (Streptococcus mutans serotype c, UniProt P08987); experiment: Cross-reactivity ELISA, plates coated with CAT peptide construct; format: binding; conditions: day 63 sera; FIG. 4
T2 construct: residues 442-462 of S. mutans GTF-B; purchased Applied Diagnostics, Foster City, Calif; host or cells: chemical solid phase synthesis
Protocol: as §2, §4

[7] = test system: S. sobrinus GTF; experiment: Antibody inhibition of glucan synthesis (filter assay, 14C glucose incorporation into water-insoluble glucan); format: biochemical, S. sobrinus strain 6715
Text: as §1
Antibody Inhibition of Glucan Synthesis: Selected rat sera were evaluated for their ability to inhibit glucan synthesis catalyzed by S. sobrinus GTF, using a filter assay. Ten μl volumes of sera (1:100 dilutions in 0.02M sodium phosphate buffered saline and 0.02% sodium azide [PBSA], pH 6.5) were preincubated with the respective GTF for 1 hour at 37° C. in a total volume of 0.04 ml PBSA. Then 1.7 mg sucrose, 44 nCi of [^14C-glucose]-sucrose (approximately 100,000 cpm) were added in 0.2 ml PESA in the presence of 37 μg of dextran T10 (Pharmacia). Incubation proceeded for 18 hours at 37° C., after which water-insoluble glucan was collected on Whatman GF/F glass fiber filters, washed with PBSA, and radioactivity determined as described in Smith et al. (Infect. Immunity 62:5470-5476 (1994)).

[8] = test system: inducing peptide construct; experiment: ELISA of salivary IgA antibody to the inducing (homologous) peptide construct in immunized rats; format: in vivo, Sprague Dawley rats; conditions: for rats with significant levels of salivary IgA antibody: GGY- and AND-injected rats counted together
Protocol: as §2, §3, §5, §6

[9] = target: T3, GGY peptide construct (Streptococcus mutans serotype c, UniProt P08987); experiment: Cross-reactivity ELISA, plates coated with GGY peptide construct; format: binding; conditions: day 63 sera; FIG. 4
T3 construct: GGY and AND were 19-mer peptides; purchased Applied Diagnostics, Foster City, Calif; host or cells: chemical solid phase synthesis
Protocol: as §2, §4

[10] = test system: anti-GGY serum; experiment: Epitope mapping by ELISA inhibition, anti-GGY serum on GGY-coated plates; format: binding, rat; conditions: anti-GGY serum preincubated with heptamer or intact peptide; FIG. 8
Protocol: Epitope Mapping: B cell epitopes were mapped on the GGY and AND peptides by an ELISA inhibition technique. Anti-GGY or anti-AND sera were preincubated with 13 separate heptamers representing the incremental peptide sequence of the respective peptide, or with intact peptide, followed by the conventional ELISA with intact peptide-coated plates. B cell epitopes were indicated by a significant reduction in absorbance.

[11] = protection experiment 1, pre-infection

CAT: 21-mer peptide containing Asp 451, residues 442-462 of S. mutans GTF-B; positive control (DANFDSIRVDAVDNVDADLLQ) [reference compound]
IgG antibody reactivity with intact S. sobrinus GTF [1]: significant reactivity with GTF
protective effect against experimental dental caries [2]: a significant protective effect was shown
reaction of serum IgG antibody with the AND peptide construct [3]: significant reaction

ANDVDNSNPVVQAEQLNWL
mean and median total, smooth surface, and occlusal caries scores vs sham-injected group [4]: lower than the respective scores of the sham-injected group
immunogenicity (percentage of animals responding and titer of responding sera) ([5]; immunogenicity experiment): at least as high as observed for the positive control CAT peptide
effect of subsequent immunization on serum IgG titers ([5]; immunogenicity experiment, day 21 (one injection) vs day 63 (three injections)): increased serum IgG titers in all AND-injected rats
serum IgG antibody to the inciting antigen after the first injection ([5]; immunogenicity experiment, rats 43 days old at start, 50 μg sc in CFA, day 21): induced serum IgG antibody to the inciting antigen after the first injection in all rats
Serum IgG antibody levels to the AND construct [5, 11]: not significantly elevated
levels of serum IgG antibody (in words) ([5]; protection experiment 1, weanling rats, two injections eight days apart, bled 14 days after onset (day 39 of life)): little detectable antibody
reaction of serum IgG antibody with the CAT peptide [6]: low but significant reaction
inhibition of formation of water-insoluble glucan from sucrose by S. sobrinus GTF (in words) ([7]; 63 day sera from injected rats, AND p<0.01, FIG. 5): inhibited GTF activity
level of inhibitory activity compared with other immunogens ([7]; 63 day sera, AND vs CAT p<0.02): exceeded that observed with sera from rats similarly immunized with CAT
IgG antibody reactivity with intact S. sobrinus GTF [1]: significant reactivity with GTF
GTF reactivity compared with antibody induced by the other peptides [1]: significantly more reactive with GTF
rats with significant levels of salivary IgA antibody ([8]; day 21 (one injection)): 7/9
rats with significant levels of salivary IgA antibody ([8]; day 63 (three injections)): 8/9
salivary IgA antibody levels to the AND construct [8, 11]: not significantly elevated
reaction of antisera with the GGY peptide construct [9]: reaction with antisera induced by AND was observed

LLANDVD
inhibition of GGY antibody binding to intact peptide-coated plates [10]: significantly inhibited

FLLANDV
inhibition of GGY antibody binding to intact peptide-coated plates [10]: significantly inhibited

ANDVDNSNPVVQ [SAND]
immunogenicity (percentage of animals responding and titer of responding sera) ([5]; immunogenicity experiment): weakly immunogenic
